Measured values reported in US5071965A, “Novel TC-99M complexes” (Mallinckrodt Medical, Inc., priority 1989, dated 1991).

Test: not given
Conditions: literature, Green et al. 1985; cited from earlier work
In the case of `COc1ccc(O)c(C=NCC(C)(CN=Cc2cc(OC)ccc2O)CN=Cc2cc(OC)ccc2O)c1` (stereo not shown) [1,1,1-tris (5-methoxysalicyl-aldiminomethyl) ethane], the overall charge is listed as “no overall charge”.

Test: not given
Conditions: in vivo; cited from earlier work
In the case of `COc1ccc(O)c(C=NCC(C)(CN=Cc2cc(OC)ccc2O)CN=Cc2cc(OC)ccc2O)c1` (stereo not shown) [1,1,1-tris (5-methoxysalicyl-aldiminomethyl) ethane], the “washout from the heart (images of a dog's heart)” value is given as “washed out quickly from the heart”.

Test: Biodistribution of Tc-99m complexes in guinea pigs (heart uptake, heart/blood)
Conditions: 5 minutes, Tc-99m complex
Description: The procedures used for determining biodistribution are as follows.
Guinea Pigs--The guinea pigs are anesthetized and the technetium complex is injected into the jugular vein after a cutdown. The animals are sacrificed after 5 minutes and the organs removed and counted as with the rats.
For guinea pigs, significant heart uptake is determined if the percentage of technetium in the heart is greater than 0.5% and the heart/blood ratio is greater than 1.
In the case of `Cc1ccc(O)c(C=NCC(C)(CN=Cc2cc(C)ccc2O)CN=Cc2cc(C)ccc2O)c1` (stereo not shown) [R5=H, R6=H, R7=CH3, R8=H, R3=H, R4=CH3], the “Guinea Pig Heart/Blood Ratio” value is reported as 18.

Same assay, conditions: complex made from the reduced ligand
For `CCCOCC(CNCc1ccccc1O)(CNCc1ccccc1O)CNCc1ccccc1O` [Example 96, 1,1,1-tris(2-hydroxyphenylmethylaminomethyl)-2-propoxyethane], the “guinea pig biodistributions, compared with the complex of Example 95” value was “identical”.

Same assay, conditions: jugular vein injection, 5 minutes, Tc-99m complex
In the case of `CSc1ccc(O)c(C=NCC(C)(CN=Cc2cc(SC)ccc2O)CN=Cc2cc(SC)ccc2O)c1` (stereo not shown) [R5=H, R6=H, R7=SCH3, R8=H, R3=H, R4=CH3, 4-methylthiophenol, 2,2'-[[2-[[[(5-methylthio-2-hydroxyphenyl)methylene]amino-]methyl]-2-methyl-1,3-propanediyl]bis(nitrilomethylidyne)]bis-], the “5 Minute Guinea Pig % HT Uptake” value is reported as 1.23%. For `COCC(CN=Cc1c(O)cc(OC)c(OC)c1OC)(CN=Cc1c(O)cc(OC)c(OC)c1OC)CN=Cc1c(O)cc(OC)c(OC)c1OC` (stereo not shown) [3,4,5-trimethoxyphenol, 2,2'-[[2-[[[(4,5,6-trimethoxy-2-hydroxyphenyl)methylene]amino]methyl]-2-methoxymethyl-1,3-propanediyl]bis(nitrilomethylidyne)]bis-], the “5 Minute Guinea Pig % HT Uptake” value was 0.86%. With `COc1ccc(COCC(CN=Cc2ccccc2O)(CN=Cc2ccccc2O)CN=Cc2ccccc2O)cc1` (stereo not shown) [phenol, 2,2'-[[2-[[[2-hydroxyphenyl)methylene]amino]methyl]-2-(4-methoxyphenyl)methoxymethyl-1,3-propanediyl]bis(nitrilomethylidyne)]bis-] the “5 Minute Guinea Pig % HT Uptake” value was 1.08%. In the case of `Oc1c(F)cc(F)cc1C=NCC(CN=Cc1cc(F)cc(F)c1O)(CN=Cc1cc(F)cc(F)c1O)COCc1ccccc1` (stereo not shown) [2,4-difluorophenol, 2,2'-[[2-[[[(3,5-difluoro-2-hydroxyphenyl)methylene]amino]methyl]-2-phenylmethoxymethyl-1,3-propanediyl]bis(nitrilomethylidyne)]bis-], the “5 Minute Guinea Pig % HT Uptake” value is reported as 1.72%. In the case of “phenol, 2,2'-[[2-[[[(2-hydroxyphenyl)methylene]amino]methyl]-2-(4-methoxy-4-methyl)pentyl-1,3-propanediyl]bis(nitrilomethylidyne)]bis-”, the “5 Minute Guinea Pig % HT Uptake” value is reported as 1.61%. In the case of `Cc1ccc(O)c(C=NCC(C)(CN=Cc2cc(C)ccc2O)CN=Cc2cc(C)ccc2O)c1` (stereo not shown) [R5=H, R6=H, R7=CH3, R8=H, R3=H, R4=CH3], the “5 Minute Guinea Pig % HT Uptake” value is reported as 1.82%. In the case of `COc1ccc(COCC(CN=Cc2c(O)cc(OC)c(OC)c2OC)(CN=Cc2c(O)cc(OC)c(OC)c2OC)CN=Cc2c(O)cc(OC)c(OC)c2OC)cc1` (stereo not shown) [3,4,5-trimethoxyphenol, 2,2'-[[2-[[[(4,5,6-trimethoxy-2-hydroxyphenyl)methylene]amino]methyl]-2-(4-methoxyphenyl)methoxymethyl-1,3-propranediyl]bis(nitrilomethylidyne)]bis-], the “5 Minute Guinea Pig % HT Uptake” value is reported as 1.04%. With `COc1cccc(O)c1C=NCC(C)(CN=Cc1c(O)cccc1OC)CN=Cc1c(O)cccc1OC` (stereo not shown) [R5=H, R6=H, R7=H, R8=OCH3, R3=H, R4=CH3, 3-Methoxyphenol, 2,2'-[[2-[[[(6-methoxy-2-hydroxyphenyl)methylene]amino]methyl]-2-methyl-1,3-propanediyl]bis(nitrilomethylidyne)]bis-] the “5 Minute Guinea Pig % HT Uptake” value was 1.55%. For `COCC(CN=Cc1ccccc1O)(CN=Cc1ccccc1O)CN=Cc1ccccc1O` (stereo not shown) [phenol, 2,2'-[[2-[[[(2-hydroxyphenyl)methylene]amino]methyl]-2-methoxymethyl-1,3-propanediyl]bis(nitrilomethylidyne)]bis-], the “5 Minute Guinea Pig % HT Uptake” value was 1.44%. In the case of `COc1cc(COCC(CN=Cc2ccccc2O)(CN=Cc2ccccc2O)CN=Cc2ccccc2O)cc(OC)c1OC` (stereo not shown) [phenol, 2,2'-[[2-[[[(2-hydroxyphenyl)methylene]amino]methyl]-2-(3,4,5-trimethoxyphenyl)methoxymethyl-1,3-propanediyl]bis(nitrilomethylidyne)]bis-], the “5 Minute Guinea Pig % HT Uptake” value is reported as 1.00%. In the case of `CCOc1ccc(C=NCC(C)(CN=Cc2ccc(OCC)cc2O)CN=Cc2ccc(OCC)cc2O)c(O)c1` (stereo not shown) [3-Ethoxyphenol, 6,6'-[[2[[[(4-ethoxy-2-hydroxyphenyl)methylene]amino]methyl-2-methyl-1,3-propanediyl]bis(nitrilomethylidyne)]bis-], the “5 Minute Guinea Pig % HT Uptake” value is reported as 0.98%. For `CN(C)c1ccc(C=NCC(C)(CN=Cc2ccc(N(C)C)cc2O)CN=Cc2ccc(N(C)C)cc2O)c(O)c1` (stereo not shown) [3-Dimethylaminophenol, 6,6'-[[2-[[[(4-dimethylamino-2-hydroxy-phenyl)methylene]amino]methyl]-2-methyl-1,3-propanediyl]bis-(nitrilomethylidyne)]bis-], the “5 Minute Guinea Pig % HT Uptake” value was 0.72%. With `COC(=O)c1ccc(O)c(C=NCC(C)(CN=Cc2cc(C(=O)OC)ccc2O)CN=Cc2cc(C(=O)OC)ccc2O)c1` (stereo not shown) [methyl-4-hydroxybenzoate, 3,3'-[[2-[[[(5-carbomethoxy-2-hydroxyphenyl)methylene]amino]methyl]-2-methyl-1,3-propanediyl]bis(nitrilomethylidyne)]bis-] the “5 Minute Guinea Pig % HT Uptake” value was 1.23%. With `COc1c(O)c(C=NCC(C)(CN=Cc2c(O)c(OC)c(OC)c(OC)c2OC)CN=Cc2c(O)c(OC)c(OC)c(OC)c2OC)c(OC)c(OC)c1OC` (stereo not shown) [2,3,4,5-tetramethoxyphenol, 6,6'-[[2-[[[(3,4,5,6-tetramethoxy-2-hydroxyphenyl)methylene]amino]methyl]-2-methyl-1,3-propanediyl]bis(nitrilomethylidyne)]bis-] the “5 Minute Guinea Pig % HT Uptake” value was 1.24%. For `CCCCCCOCC(CN=Cc1ccccc1O)(CN=Cc1ccccc1O)CN=Cc1ccccc1O` (stereo not shown) [phenol, 2,2,'-[[2-[[[(2-hydroxyphenyl)methylene]amino]methyl]-2-hexyloxymethyl-1,3-propanediyl]bis(nitrilomethylidyne)]bis-], the “5 Minute Guinea Pig % HT Uptake” value was 1.19%. In the case of `CCc1cccc(C=NCC(C)(CN=Cc2cccc(CC)c2O)CN=Cc2cccc(CC)c2O)c1O` (stereo not shown) [2-ethylphenol, 6,6'-[[2-[[[3-ethyl-2-hydroxyphenyl)methylene]amino]methyl]2-methyl-1,3-propanediyl]bis(nitrilomethylidyne)]bis-], the “5 Minute Guinea Pig % HT Uptake” value is reported as 0.47%. With `CCCCCCCC(=O)OCC(CN=Cc1ccccc1O)(CN=Cc1ccccc1O)CN=Cc1ccccc1O` (stereo not shown) [phenol, 2,2'-[[2-[[[(2-hydroxypheny)methylene]amino]methyl]-2-octanoyloxymethyl-1,3-propanediyl]bis(nitrilomethylidyne)]bis-] the “5 Minute Guinea Pig % HT Uptake” value was 0.88%. With `Cc1ccc(C=NCC(C)(CN=Cc2ccc(C)cc2O)CN=Cc2ccc(C)cc2O)c(O)c1` (stereo not shown) [R5=H, R6=CH3, R7=H, R8=H, R3=H, R4=CH3, 3-Methylphenol, 6,6'-[[2-[[[(4-methyl-2-hydroxyphenyl)methylene]amino]methyl]-2-methyl-1,3-propanediyl]bis(nitrilomethylidyne)]bis-] the “5 Minute Guinea Pig % HT Uptake” value was 1.51%. With `CCC(=NCC(C)(CN=C(CC)c1ccccc1O)CN=C(CC)c1ccccc1O)c1ccccc1O` (stereo not shown) [phenol, 2,2'-[[2-[[[(2-hydroxyphenyl)propylene]amino]methyl]-2-methyl-1,3-propanediyl]bis(nitrilopropylidyne)]bis-] the “5 Minute Guinea Pig % HT Uptake” value was 0.76%.

Test: not given
Conditions: in vivo, 5 min
With `CC(=NCC(C)(CN=C(C)c1cc(F)ccc1O)CN=C(C)c1cc(F)ccc1O)c1cc(F)ccc1O` (stereo not shown) [R5=H, R6=H, R7=F, R8=H, R3=CH3, R4=CH3, 1',1',1'-tris(5-fluoro-2-hydroxyacetophenoiminemethyl)ethane] the “5 Minute Guinea Pig % HT Uptake” value was 0.66%.

Test: not given
Conditions: rat, in vivo; cited from earlier work
For `COc1ccc(O)c(C=NCC(C)(CN=Cc2cc(OC)ccc2O)CN=Cc2cc(OC)ccc2O)c1` (stereo not shown) [1,1,1-tris (5-methoxysalicyl-aldiminomethyl) ethane], the “washout from the heart (biodistribution data in rats)” value is given as “washed out quickly from the heart”.
